Measurements reported in PMC8588536, “Iridal-Type Triterpenoids Displaying Human Neutrophil Elastase Inhibition and Anti-Inflammatory Effects from Belamcanda chinensis” (Molecules, 2021).
Entries after “also recorded” stand apart in the source; their conditions may differ.

Columns and labels:
[1] = tested on: IL-1β mRNA in LPS-stimulated RAW264.7 cells; assay: IL-1β mRNA expression by RT-PCR; assay type: cell-based, mouse; details: 1 or 3 µg/mL, n = 6, p < 0.05
Description: Total RNA was isolated from cultured RAW264.7 cells using TRIzol reagent (Ambion®, Carlsbad, CA, USA) according to the manufacturer’s instructions. First strand cDNA was synthesized from the total RNA (3 μg) using oligo dT (DiaStar RT Kit, SolGent, Daejeon, Korea) and was used as a template for PCR amplification with G-Taq polymerase (Cosmogenetech, Seoul, Korea). The first-strand cDNA was quantified using a spectrophotometer (NanoDrop® ND-1000, NanoDrop Technologies, Wilmington, […], USA). The quantified cDNA was used as a template. PCR assay was performed with specific primers for inducible nitric oxide (iNOS), IL-1β, and TNF-α. The PCR steps included initial denaturation at 94 °C for 5 min, then 28 cycles at 94 °C for 30 s, 57 °C for 30 s, and 72 °C for 30 s, and a final extension step at 72 °C for 10 min. The amplified PCR products were separated in 1.5% agarose gel, and the gel was stained with ethidium bromide. The bands were visualized using the iBright^TM CL1500 imaging system (Thermo Scientific Fisher/Life Technologies Holdings Pte Ltd., Singapore). The DNA fragments were directly sequenced with the ABI PRISM® 3100-Avant Genetic Analyzer (Applied Biosystems, Carlsbad, CA, USA).

[2] = tested on: NF-κB p65 in LPS-stimulated RAW264.7 cells; assay: NF-κB nuclear translocation, immunocytochemistry; assay type: cell-based, mouse; details: pre-treatment 2 h prior to LPS 1 µg/mL for 16 h
Description: RAW264.7 cells cultured on round cover slips coated with poly-L-lysine were treated with triterpenoids (1 or 3 µg/mL) 2 h prior to LPS treatment, followed by LPS (1 µg/mL) for 16 h. The cells were washed with 1 x phosphate buffered saline (PBS) and fixed with 4% paraformaldehyde for 30 min. After washing the fixed cells with PBS, the cells were permeabilized with a blocking buffer (1% normal goat serum and 0.2% Triton X-100 in PBS) for 30 min at room temperature, and were incubated with an anti-NF-κB p65 antibody (1:200 dilution, Cell Signaling Technology, Danvers, MA, USA) at 4 °C overnight. After three washes in PBS, the cells were incubated in the dark for 1 h with the mixture of FITC-conjugated anti-rabbit IgG fluorescent secondary antibody diluted at 1:500 in PBS. Finally, the cells were stained with 2 µg/mL Hoechst for nuclei staining. The cells were washed with PBS, wet-mounted on glass slides, and observed using a confocal laser-scanning microscope (Olympus, Tokyo, Japan). The negative control (NC) was analyzed by omitting the primary antibody.

[3] = tested on: NO production in LPS-stimulated RAW264.7 cells; assay: Nitrite levels (NO production), Griess method; assay type: cell-based, mouse; details: 1 or 3 µg/mL 2 h prior to LPS 1 µg/mL for 16 h; p < 0.05
Description: Nitrite levels were determined using the Griess method, as described previously (Jeong et al., 2016). Briefly, RAW264.7 cells (5 × 10^4 cells/well) were cultured in a 24-well plate. The cells were pretreated with triterpenoids (1 or 3 µg/mL) 2 h prior to lipopolysaccharides (LPS, 1 µg/mL) treatment for 16 h. Supernatants were collected and centrifuged at 2451× g for 10 min. The (50 μL) of supernatants were mixed with equal volumes of Griess reagent (1% sulfanilamide, 0.1% n-l-naphthylethy-lenediamine dihydrochloride, and 2% phosphoric acid), and incubated for 10 min. The optical density was measured at 550 nm, and the nitrite levels were calculated from a standard curve generated from sodium nitrite.

[4] = target: T1, Human neutrophil elastase (HNE) (Homo sapiens, UniProt P08246); assay: Fluorescence quenching binding affinity to HNE; details: inhibitor 7.8–31.2 µM; for Kd: read-out: KA (association constant of the complex of enzyme and quencher) (converted); for KSV (Stern-Volmer quenching constant): λEx 260 nm, λEm 280–400 nm
T1 construct: purchased Sigma-Aldrich
T1 sequence (P08246 30-267): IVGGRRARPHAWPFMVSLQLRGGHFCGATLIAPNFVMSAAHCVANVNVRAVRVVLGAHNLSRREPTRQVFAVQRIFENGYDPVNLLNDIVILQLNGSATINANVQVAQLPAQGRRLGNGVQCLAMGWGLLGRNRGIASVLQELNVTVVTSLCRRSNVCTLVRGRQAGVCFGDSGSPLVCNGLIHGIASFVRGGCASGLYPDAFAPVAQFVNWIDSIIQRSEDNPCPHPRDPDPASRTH
Description: To measure fluorescence from the HNE enzyme, 10 μL of 0.01 unit/mL enzyme solution with 180 μL of Tris-HCl buffer (0.02 mM) was accurately added into the 96-well black immunoplates. Then, 10 μL of incremental concentrations (7.8–31.2 μΜ) of inhibitors were added into each well. All fluorescence spectra were measured from 280 to 400 nm with emission slits regulated to 2.0 nm, and the excitation wavelength was 260 nm. The Stern–Volmer quenching constant (KSV) was calculated using Equation (5). All experiments were conducted in triplicate, and the mean values were calculated. (5) […]=1+KSV[Q], where F0 and F are the fluorescence intensities in the absence and presence of quencher (Q). KSV is the Stern–Volmer quenching constant [LM^−1]. For static quenching, the correlation between the fluorescence intensity and the concentration of quencher for the series of reactions can be estimated by Equation (6). (6) log[(F0−F)/F]=logKA+nlog[Q]f.
F0 and F are the fluorescence intensities in the absence and presence of inhibitor; KA is the binding constant; n is the number of binding sites of the enzyme; Qf is the concentration of inhibitor.

[5] = tested on: LPS-stimulated RAW264.7 cells; assay: LPS-induced morphological changes (macrophage activation); assay type: cell-based, mouse; details: pre-treatment 1 or 3 µg/mL
Description: The mouse macrophage cell line RAW264.7 was obtained from the American Type Culture Collection (ATCC, Manassas, VA, USA). The cells were cultured in DMEM supplemented with 10% fetal bovine serum (FBS), penicillin (100 U/mL), and streptomycin (100 μg/mL) at 37 °C with 5% CO2. The medium was replaced every 2 days. After treatment with chemicals, the cell morphological changes were observed under a microscope and images are captured before cell viability assay.

Structure (SMILES)	LPS-upregulated IL-1β mRNA level [1]	NF-κB translocation to the nucleus (immunocytochemical staining) [2]	LPS-induced NO production [3]	n (number of binding sites of the enzyme) [4]	Kd [4]	KSV (Stern-Volmer quenching constant) [4]	effect on LPS-induced morphological changes [5]
CC(C)=CCC/C(C)=C/C[C@@H](O)/C(C)=C/CC[C@@]1(C)[C@H](CCCO)/C(=C(/C)C=O)CC[C@]1(C)O [Compound 1, isoiridogermanal]	noticeably decreased	suppressed	significantly reduced	1.0039	24.3 µM	41660 L/mol	ameliorated
CC(C)=CCCC(C)=CCC(O)C(C)=CCCC1(C)C(CCCO)C(=C(C)C=O)CCC1(C)O (centres unmarked) [Compound 2, iridobelamal A]	noticeably decreased	suppressed	significantly reduced; also recorded: dose-dependent inhibition	0.9734	50.3 µM	18160 L/mol	ameliorated
